PMC3997074, “Pharmacokinetic and Biodistribution Assessment of a Near Infrared-Labeled PSMA-Specific Small Molecule in Tumor-Bearing Mice” (Prostate Cancer, 2014)

Experiments:
[1] = target: T1, prostate-specific membrane antigen (PSMA) (Homo sapiens, UniProt Q04609); assay: NIR fluorescence saturation binding to PSMA-positive […]1 cells (PSMA-negative PC3 M-LN4 control; LNCaP apparent Kd […]); format: cell-based
T1 construct: gene FOLH1

[2] = target: T1, prostate-specific membrane antigen (PSMA); assay: competition of YC-27 […]CW binding to LNCaP cells; format: cell-based

T1 sequence (Q04609 whole entry): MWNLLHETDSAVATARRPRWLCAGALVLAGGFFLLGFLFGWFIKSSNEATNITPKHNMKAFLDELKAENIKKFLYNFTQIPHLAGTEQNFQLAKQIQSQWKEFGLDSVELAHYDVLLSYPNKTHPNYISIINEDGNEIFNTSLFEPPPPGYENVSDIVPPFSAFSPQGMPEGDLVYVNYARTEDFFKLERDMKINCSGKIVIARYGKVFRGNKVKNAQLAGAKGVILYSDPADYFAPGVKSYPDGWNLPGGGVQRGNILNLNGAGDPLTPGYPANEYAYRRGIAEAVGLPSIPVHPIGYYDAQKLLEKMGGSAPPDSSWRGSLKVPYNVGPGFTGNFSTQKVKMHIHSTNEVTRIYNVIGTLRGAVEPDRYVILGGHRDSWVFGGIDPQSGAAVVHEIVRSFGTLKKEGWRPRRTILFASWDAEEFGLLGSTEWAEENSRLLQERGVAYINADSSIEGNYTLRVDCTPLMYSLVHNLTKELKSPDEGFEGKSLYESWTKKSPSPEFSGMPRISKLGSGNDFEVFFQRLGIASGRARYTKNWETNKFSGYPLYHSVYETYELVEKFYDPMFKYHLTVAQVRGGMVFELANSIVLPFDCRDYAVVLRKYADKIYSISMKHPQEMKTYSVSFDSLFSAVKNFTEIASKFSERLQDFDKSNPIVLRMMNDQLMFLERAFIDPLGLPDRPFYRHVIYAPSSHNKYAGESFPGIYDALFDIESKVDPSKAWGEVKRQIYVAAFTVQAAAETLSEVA

YC-27 800CW
Kd [1]: 8 nM

unlabeled YC-27
IC50 [2]: 1700 nM
